Tested on: SR-786 tumor cells (SR786 xenograft ALCL model)
Assay: In vivo tumor efficacy model: SR786 xenograft ALCL model, SGN35 and MLN8237 alone or in combination
Set-up: species or system CB17 SCID female mice
Conditions: for average tumor volume day 15 / average tumor volume day 21: in mm³
Method: SR-786 (4.0×10^6) tumor cells in RPMI-1640 media were aseptically injected into the subcutaneous space in the right dorsal flank of CB17 SCID female mice (Taconic Farms, Inc) using a 26 G 5/8 needle.
Brentuximab vedotin (SGN35), one vial (Seattle Genetics) was reconstituted in 10.5 ml sterile water to give a stock solution at 4.76 mg/ml concentration. The stock solution was formulated in 0.9% saline to reach the desired concentration and administered by intraperitoneal injection (IP) q4Dx21 days at 0.3 mg/kg and 0.4 mg/kg.
MLN8237 was formulated in 10% hydroxypropyl-beta-cyclodextrin and 1% sodium bicarbonate (10% HPbCD+1% NaHCO3) and administered by oral injection (1 cc syringe, 20-22 gauge) on QD schedule at 10 mg/kg and 20 mg/kg for 21 days. MLN8237 as used in the experimental section refers to alisertib sodium salt and the amount referenced is the amount of alisertib used.
Tumors were measured twice weekly using a vernier caliper. Tumor volumes were calculated using standard procedures (0.5×[…]). When the tumors reached a volume of approximately 200 mm^3 (SR-786), mice were randomized into 6-8 groups as described in the tables below, and injected with vehicle, MLN8237 or SGN35 or the combination of MLN8237 with SGN35, at various doses as described below in Tables 1 and 2. Tumor size and body weight were measured approximately twice a week for the duration of the study. Mice were euthanized when their tumor volume reached 10% of their body weight, or when the average tumor volume of a treatment or control group reached approximately 2000 mm^3. Tumor growth continued to be monitored after the dosing period in this study. Average tumor volume is reported as a function of time for selected groups in FIG. 1A and FIG. 1B.
The synergy analysis is based on the tumor volume data from day 0 to 21. Volume measurements below 25 cubic mm are excluded from the analysis because very low volumes cannot be measured accurately. The remaining measurements are log transformed and fit to a simple linear model with the measurement day as a covariate. The data are fit separately for the different animals to yield an estimated tumor growth rate for each animal in each treatment group. Based on the growth rates, the synergy score for the combination of agents A and B is defined as 100*(mean(μAB)−mean(μA)−mean(μB)+mean(μctl))/mean(μctl): where μAB, μA, μB, and μctl are the mean tumor growth rates for animals in the combination group, the A group, the B group, and the control group, respectively. The standard error of the synergy score is computed based on the variation in the growth rates among the animals. […] If the P-value is above 0.05, then the combination is considered to be additive. If the P-value is below 0.05, and the synergy score is less than zero, then the combination is considered to be synergistic. […] Otherwise, the combination is classified as antagonistic. Results

Molecule | average tumor volume day 15 (10 mg/kg MLN8237, QD, P.O) | average tumor volume day 21 (10 mg/kg MLN8237, QD, P.O) | average tumor volume day 15 (20 mg/kg MLN8237, QD, P.O) | average tumor volume day 21 (20 mg/kg MLN8237, QD, P.O) | tumor growth compared to the control vehicle group (single agent MLN8237 P.O 10 mg/kg and 20 mg/kg QD) | average tumor volume day 15 (0.3 mg/kg SGN35, Q4d, I.P) | average tumor volume day 21 (0.3 mg/kg SGN35, Q4d, I.P) | average tumor volume day 15 (0.4 mg/kg SGN35, Q4d, I.P) | average tumor volume day 21 (0.4 mg/kg SGN35, Q4d, I.P) | tumor growth compared to the control vehicle group (single agent SGN35 0.3 and 0.4 mg/kg I.P Q4d)
COc1cc(Nc2ncc3c(n2)-c2ccc(Cl)cc2C(c2c(F)cccc2OC)=NC3)ccc1C(=O)O [MLN8237, 4-{[9-chloro-7-(2-fluoro-6-methoxyphenyl)-5H-pyrimido[5,4-d][2]benzazepin-2-yl]amino}-2-methoxybenzoic acid] | 625.4 | 1121 | 387.1 | 576.4 | inhibited tumor growth |  |  |  |  | 
SGN35 |  |  |  |  |  | 1136.1 | 1676 | 491.3 | 553.8 | inhibited tumor growth
